Measurements as given in patent publication US20210317140A1, “Heterocyclic Compounds and Methods of Use” (MEDIVATION TECHNOLOGIES, INC, priority 2013, published 2021).
pIC50: −log10 of the molar value.

Columns and labels:
Type in all cases: biochemical
PI3Kδ = biological target: T1, PI3Kδ (Homo sapiens, UniProt O00329); experiment: PI3Kδ kinase assay (HTRF, PIP3 detection); details: for pIC50: 10 dose IC50, 10 μM ATP; for PI3Kδ @ 0.1 μM (% Inh): 0.1 μM compound; for PI3Kδ @ 0.1 μM (% Inh) / PI3Kδ @ 1 μM (% Inh) / PI3Kδ @ 0.01 μM (% Inh): 10 μM ATP; for PI3Kδ @ 1 μM (% Inh): 1 μM compound; for PI3Kδ @ 0.01 μM (% Inh): 0.01 μM compound
T1 construct: purchased Reaction Biology Corporation
Procedure, shortened: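 10-dose HTRF assay; kinase preincubated with compound 10 min at RT, then reacted with 10 μM PIP2 and 10 μM ATP for 30 min at 30 °C in HEPES pH 7.0 buffer. PIP3 product displaces biotin-PIP3 from the Eu/APC complex; signal converted to PIP3 via standard curve, IC50 by nonlinear regression.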

PI3Kβ = biological target: T2, PI3Kβ (Homo sapiens, UniProt P42338); experiment: PI3Kβ isoform profiling (PI3Kδ protocol); details: for PI3Kβ @ 0.3 μM (% Inh): 0.3 μM compound; for pIC50: 10 dose IC50
T2 construct: purchased Reaction Biology Corporation
Description: (§1) PI3Kδ assay: The PIP3 product is detected by displacement of biotin-PIP3 from an energy transfer complex consisting of Europium labeled anti-GST monoclonal antibody, a GST-tagged pleckstrin homology (PH) domain, biotinylated PIP3 and Streptavidin-Allophycocyanin (APC). Excitation of Europium in the complex results in an energy transfer to the APC and a fluorescent emission at 665 nm. The PIP3 product formed by PI 3-Kinase(h) activity displaces biotin-PIP3 from the complex resulting in a loss of energy transfer and thus a decrease in signal. This is a 3-step reaction: First, the kinase reaction with PIP2 substrate is carried out in the presence of ATP (10 μM), and the reaction is quenched with stop Solution, and then finally detect by adding Detection Mixture followed by incubation (10 min). Reaction procedure: 1) Prepare substrate in freshly prepared Reaction Buffer. 2) Deliver kinase into the substrate solution and gently mix. 3) Deliver compounds in 100% DMSO (1 μM) into the kinase reaction mixture by Acoustic technology (Echo550; nanoliter range), incubate for 10 min at RT. 4) Deliver ATP into the reaction mixture to initiate the reaction. 5) Incubate for 30 min at 30° C. 6) Quench the reaction with Stop Solution. 7) Add Detection Mixture, and incubate for overnight. 8) Measure HTRF: Ex=320 nm, ratio of Em=615 nm and Em=665 nm. The emission ratio is converted into μM PIP3 production based on PIP3 standard curves. The nonlinear regression to obtain the standard curve and IC50 values are performed using Graphpad Prism software. Assay Buffer: HEPES 50 mM (pH7.0), NaN3 0.02%, BSA 0.01%, Orthovanadate 0.1 mM, 1% DMSO. Detection buffer: HEPES 10 mM (pH7.0), BSA 0.02%, KF 0.16 M, EDTA 4 mM. Substrate: 10 μM PIP2 substrate (PI(4,5)P2).
(§2) Compounds of the invention were profiled in a 10 dose IC50 panel against PI3Kα, PI3Kβ, and PI3Kγ kinases, provided by Reaction Biology Corporation, applied to the PI3Kδ protocol provided in Example B1.

PI3Kγ = biological target: T3, PI3Kγ (Homo sapiens, UniProt P48736); experiment: PI3Kγ isoform profiling (PI3Kδ protocol); details: for PI3Kγ @ 0.3 μM (% Inh): 0.3 μM compound; for pIC50: 10 dose IC50
T3 construct: purchased Reaction Biology Corporation
Description: as §1, §2

BMX/ETK = biological target: T4, BMX/ETK (Homo sapiens, UniProt P51813); experiment: BMX/ETK kinase profiling (BTK protocol); details: for BMX/ETK @ 0.3 μM (% Inh): 0.3 μM compound; for pIC50: 10 dose IC50
T4 construct: purchased Reaction Biology Corporation
T4 sequence (P51813 1-675): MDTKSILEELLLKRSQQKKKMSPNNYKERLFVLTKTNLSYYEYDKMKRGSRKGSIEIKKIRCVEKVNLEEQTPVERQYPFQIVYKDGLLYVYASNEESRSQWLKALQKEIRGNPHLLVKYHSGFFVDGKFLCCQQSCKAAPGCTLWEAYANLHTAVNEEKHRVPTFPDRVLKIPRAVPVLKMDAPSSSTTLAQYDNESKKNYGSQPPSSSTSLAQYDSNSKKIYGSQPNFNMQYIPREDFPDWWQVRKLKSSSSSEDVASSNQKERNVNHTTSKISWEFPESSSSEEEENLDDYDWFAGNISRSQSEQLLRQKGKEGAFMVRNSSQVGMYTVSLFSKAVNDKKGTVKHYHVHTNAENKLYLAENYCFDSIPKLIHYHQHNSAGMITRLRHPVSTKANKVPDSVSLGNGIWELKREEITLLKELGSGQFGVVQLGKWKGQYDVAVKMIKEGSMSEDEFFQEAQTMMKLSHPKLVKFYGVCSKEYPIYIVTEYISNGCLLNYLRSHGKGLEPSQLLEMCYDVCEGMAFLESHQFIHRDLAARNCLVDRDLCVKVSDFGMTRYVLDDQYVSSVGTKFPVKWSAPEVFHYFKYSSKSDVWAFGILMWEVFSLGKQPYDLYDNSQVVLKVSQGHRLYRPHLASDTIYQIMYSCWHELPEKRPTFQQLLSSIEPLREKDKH
Protocol: BTK assay: In vitro profiling protein kinases was performed using the “HotSpot” assay platform. Briefly, specific kinase/substrate pairs along with required cofactors were prepared in reaction buffer. Compounds were prepared as 10 mM stock solutions in DMSO. Compounds were delivered into the reaction, followed 15-20 minutes later by addition of a mixture of ATP (Sigma, St. Louis Mo.) and ^33P ATP (Perkin Elmer, Waltham Mass.) to a final concentration of 10 μM. Reactions were carried out at RT for 120 min, followed by spotting of the reactions onto P81 ion exchange filter paper (Whatman Inc., Piscataway, N.J.). Unbound phosphate was removed by extensive washing of filters in 0.75% Phosphoric acid. […] IC50 values and curve fits were obtained using Prism (GraphPad Software). Buffer Conditions: 20 mM Hepes (pH 7.5), 10 mM MgCl2, 1 mM EGTA, 0.02% Brij35, 0.02 mg/mL BSA, 0.1 mM Na3VO4, 2 mM DTT, 1% DMSO.
Compounds of the invention were profiled in a 10 dose IC50 panel against BMX/ETK, ITK and TEC kinases, provided by Reaction Biology Corporation, applied to the BTK protocol provided in Example B1.

T3 sequence (P48736 whole entry, canonical isoform): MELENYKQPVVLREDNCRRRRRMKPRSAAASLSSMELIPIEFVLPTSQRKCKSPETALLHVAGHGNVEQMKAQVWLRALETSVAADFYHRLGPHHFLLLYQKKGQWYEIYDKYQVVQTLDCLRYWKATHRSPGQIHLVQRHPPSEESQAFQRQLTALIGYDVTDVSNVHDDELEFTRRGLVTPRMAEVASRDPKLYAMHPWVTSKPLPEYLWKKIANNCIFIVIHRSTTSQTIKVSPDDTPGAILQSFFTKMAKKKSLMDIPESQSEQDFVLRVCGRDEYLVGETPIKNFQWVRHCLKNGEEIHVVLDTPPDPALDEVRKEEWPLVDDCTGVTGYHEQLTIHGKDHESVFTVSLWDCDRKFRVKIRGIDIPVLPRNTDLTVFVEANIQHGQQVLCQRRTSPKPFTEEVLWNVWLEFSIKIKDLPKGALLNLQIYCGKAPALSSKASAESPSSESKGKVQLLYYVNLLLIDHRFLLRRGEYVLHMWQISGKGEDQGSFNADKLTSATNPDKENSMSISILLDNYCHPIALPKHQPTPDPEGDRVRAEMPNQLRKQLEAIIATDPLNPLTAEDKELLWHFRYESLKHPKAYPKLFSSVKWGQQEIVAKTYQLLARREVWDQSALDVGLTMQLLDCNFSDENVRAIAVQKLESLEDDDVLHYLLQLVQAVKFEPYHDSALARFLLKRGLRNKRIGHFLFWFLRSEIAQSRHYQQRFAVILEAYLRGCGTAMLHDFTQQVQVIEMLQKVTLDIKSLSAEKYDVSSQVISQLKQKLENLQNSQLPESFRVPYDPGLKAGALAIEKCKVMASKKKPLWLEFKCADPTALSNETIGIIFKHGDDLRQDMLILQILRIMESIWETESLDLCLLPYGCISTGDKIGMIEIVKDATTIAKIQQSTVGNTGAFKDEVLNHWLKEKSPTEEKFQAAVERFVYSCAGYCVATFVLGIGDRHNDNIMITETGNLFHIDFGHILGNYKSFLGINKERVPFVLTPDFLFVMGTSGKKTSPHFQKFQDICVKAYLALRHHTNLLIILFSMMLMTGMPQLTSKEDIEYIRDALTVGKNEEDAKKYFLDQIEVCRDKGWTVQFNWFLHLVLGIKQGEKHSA
T2 sequence (P42338 whole entry, canonical isoform): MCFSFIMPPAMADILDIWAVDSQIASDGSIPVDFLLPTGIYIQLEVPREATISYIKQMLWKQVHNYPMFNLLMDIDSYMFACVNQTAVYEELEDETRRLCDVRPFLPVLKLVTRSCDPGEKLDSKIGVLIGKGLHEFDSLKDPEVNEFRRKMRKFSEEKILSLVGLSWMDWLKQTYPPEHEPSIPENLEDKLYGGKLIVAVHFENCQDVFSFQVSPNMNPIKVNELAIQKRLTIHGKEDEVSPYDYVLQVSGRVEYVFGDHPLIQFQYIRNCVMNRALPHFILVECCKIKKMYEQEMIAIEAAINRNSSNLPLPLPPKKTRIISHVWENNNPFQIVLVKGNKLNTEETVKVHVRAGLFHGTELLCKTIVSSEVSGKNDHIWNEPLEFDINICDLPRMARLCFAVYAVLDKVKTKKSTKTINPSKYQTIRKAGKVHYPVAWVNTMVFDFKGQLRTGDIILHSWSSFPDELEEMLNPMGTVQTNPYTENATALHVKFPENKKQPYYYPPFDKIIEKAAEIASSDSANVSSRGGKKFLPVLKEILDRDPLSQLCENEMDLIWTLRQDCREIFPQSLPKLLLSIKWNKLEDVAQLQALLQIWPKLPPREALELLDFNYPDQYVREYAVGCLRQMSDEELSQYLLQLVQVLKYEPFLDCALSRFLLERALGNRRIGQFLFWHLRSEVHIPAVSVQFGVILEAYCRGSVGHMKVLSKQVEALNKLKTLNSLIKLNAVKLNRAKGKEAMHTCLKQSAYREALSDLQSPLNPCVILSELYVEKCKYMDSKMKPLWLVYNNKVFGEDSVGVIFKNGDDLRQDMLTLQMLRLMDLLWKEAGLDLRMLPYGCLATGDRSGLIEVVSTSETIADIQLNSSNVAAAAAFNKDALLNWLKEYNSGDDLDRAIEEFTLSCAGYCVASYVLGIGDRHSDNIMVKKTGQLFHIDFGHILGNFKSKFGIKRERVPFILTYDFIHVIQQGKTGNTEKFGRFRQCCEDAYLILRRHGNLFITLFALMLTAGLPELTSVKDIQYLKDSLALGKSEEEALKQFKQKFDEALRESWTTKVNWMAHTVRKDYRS
T2 sequence (P27986 whole entry partner, canonical isoform): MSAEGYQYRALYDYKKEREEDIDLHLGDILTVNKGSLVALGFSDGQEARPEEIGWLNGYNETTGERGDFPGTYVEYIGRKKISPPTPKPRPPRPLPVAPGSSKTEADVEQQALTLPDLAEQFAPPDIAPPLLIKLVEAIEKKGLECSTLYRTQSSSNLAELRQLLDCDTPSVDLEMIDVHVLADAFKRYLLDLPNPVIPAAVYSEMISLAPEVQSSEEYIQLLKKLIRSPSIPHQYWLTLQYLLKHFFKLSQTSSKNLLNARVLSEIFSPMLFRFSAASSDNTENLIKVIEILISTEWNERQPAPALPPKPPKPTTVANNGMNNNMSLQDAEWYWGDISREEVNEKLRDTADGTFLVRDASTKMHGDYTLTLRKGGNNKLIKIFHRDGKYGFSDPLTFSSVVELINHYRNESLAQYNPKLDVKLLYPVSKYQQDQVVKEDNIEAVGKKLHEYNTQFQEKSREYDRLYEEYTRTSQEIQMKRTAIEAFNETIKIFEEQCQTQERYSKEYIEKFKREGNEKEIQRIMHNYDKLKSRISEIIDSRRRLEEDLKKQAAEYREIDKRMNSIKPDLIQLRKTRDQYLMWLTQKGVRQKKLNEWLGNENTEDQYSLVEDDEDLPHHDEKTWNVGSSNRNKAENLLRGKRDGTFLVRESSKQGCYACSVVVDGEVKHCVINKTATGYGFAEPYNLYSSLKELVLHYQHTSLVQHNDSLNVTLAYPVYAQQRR
T1 sequence (O00329 whole entry): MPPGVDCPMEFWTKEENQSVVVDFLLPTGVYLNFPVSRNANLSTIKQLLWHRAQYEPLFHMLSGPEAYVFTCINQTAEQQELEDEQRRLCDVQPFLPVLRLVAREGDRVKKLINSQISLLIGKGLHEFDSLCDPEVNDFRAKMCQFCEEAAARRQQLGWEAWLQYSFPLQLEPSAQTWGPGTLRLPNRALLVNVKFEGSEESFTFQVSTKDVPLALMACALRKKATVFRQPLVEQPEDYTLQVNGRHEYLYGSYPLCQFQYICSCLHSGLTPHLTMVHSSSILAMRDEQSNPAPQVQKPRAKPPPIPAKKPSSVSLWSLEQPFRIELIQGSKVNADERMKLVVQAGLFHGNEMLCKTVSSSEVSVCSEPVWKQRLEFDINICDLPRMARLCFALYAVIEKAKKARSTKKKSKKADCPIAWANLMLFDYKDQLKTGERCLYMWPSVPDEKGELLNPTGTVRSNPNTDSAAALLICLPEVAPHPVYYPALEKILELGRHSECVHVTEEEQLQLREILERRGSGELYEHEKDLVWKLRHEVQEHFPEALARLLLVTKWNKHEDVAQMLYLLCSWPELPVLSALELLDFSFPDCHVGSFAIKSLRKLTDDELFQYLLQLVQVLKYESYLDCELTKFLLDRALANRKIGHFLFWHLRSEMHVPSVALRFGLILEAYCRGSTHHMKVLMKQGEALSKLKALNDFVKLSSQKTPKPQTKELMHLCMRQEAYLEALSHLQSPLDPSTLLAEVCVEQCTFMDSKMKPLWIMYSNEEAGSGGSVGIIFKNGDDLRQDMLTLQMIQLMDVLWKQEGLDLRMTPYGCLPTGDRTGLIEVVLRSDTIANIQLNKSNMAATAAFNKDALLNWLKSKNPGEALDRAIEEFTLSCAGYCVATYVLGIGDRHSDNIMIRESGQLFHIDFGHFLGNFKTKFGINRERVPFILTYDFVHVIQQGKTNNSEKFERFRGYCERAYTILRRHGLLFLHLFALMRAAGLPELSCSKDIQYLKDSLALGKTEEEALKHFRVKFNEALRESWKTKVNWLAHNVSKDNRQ
T1 sequence (P27986 whole entry partner): as the sequence (P27986 whole entry partner, canonical isoform) above

Row | SMILES | pIC50 (PI3Kδ) | PI3Kβ @ 0.3 μM (% Inh) (PI3Kβ) | PI3Kγ @ 0.3 μM (% Inh) (PI3Kγ) | BMX/ETK @ 0.3 μM (% Inh) (BMX/ETK) | PI3Kδ @ 0.1 μM (% Inh) (PI3Kδ) | pIC50 (PI3Kβ) | pIC50 (PI3Kγ) | pIC50 (BMX/ETK) | PI3Kδ @ 1 μM (% Inh) (PI3Kδ) | PI3Kδ @ 0.01 μM (% Inh) (PI3Kδ)
1 | C=CC(=O)N1CC(n2nc(-c3cc(O)cc(F)c3)c3c(N)ncnc32)Cc2cc(C)ccc21 (stereo not shown) [compound 31, 1-(3-(4-amino-3-(3-fluoro-5-hydroxyphenyl)-1H-pyrazolo[3,4-d]pyrimidin-1-yl)-6-methyl-3,4-dihydroquinolin-1(2H)-yl)prop-2-en-1-one] | 7.47 | 52.63 | 0.74 | 89.72 | 44.38 | 6.03 | 5.19 | 5.19 |  | 
2 | C=CC(=O)N1CC(n2nc(-c3cc(O)cc(F)c3)c3c(N)ncnc32)Cc2cc(C)ccc21 (single isomer, unassigned) [31b, 1-(3-(4-amino-3-(3-fluoro-5-hydroxyphenyl)-1H-pyrazolo[3,4-d]pyrimidin-1-yl)-6-methyl-3,4-dihydroquinolin-1(2H)-yl)prop-2-en-1-one] | 7.97 | 32.34 | 14.76 | 88.04 | 78.27 |  |  |  |  | 44.15
3 | Nc1ncnc2c1c(-c1cc(F)c3c(c1)NCCO3)nn2C1Cc2ccccc2C1 [Compound No. 84, 1-(2,3-dihydro-1H-inden-2-yl)-3-(8-fluoro-3,4-dihydro-2H-1,4-benzoxazin-6-yl)-1H-pyrazolo[3,4-d]pyrimidin-4-amine] | 7.46 | 27.83 | 55.61 | 62.51 | 53.06 |  |  |  | 88.36 | 
4 | Nc1ncnc2c1c(-c1cc(O)cc(F)c1)nn2C1Cc2ccc(F)cc2C1 (stereo not shown) [compound 57, 3-[4-amino-1-(5-fluoro-2,3-dihydro-1H-inden-2-yl)-1H-pyrazolo[3,4-d]pyrimidin-3-yl]-5-fluorophenol] | 8.10 | 60.98 | 30.85 | 74.27 | 96.89 |  |  |  | 100.0 | 
5 | Nc1ncnc2c1c(-c1cc(O)c(F)c(Cl)c1)cn2C1Cc2ccccc2C1 [compound 110, 5-[4-amino-7-(2,3-dihydro-1H-inden-2-yl)-7H-pyrrolo[2,3-d]pyrimidin-5-yl]-3-chloro-2-fluorophenol] | 7.92 | 50.12 | 47.05 | 92.59 | 76.2 |  |  |  |  | 40.85
6 | Nc1ncnc2c1c(-c1cc(O)cc(F)c1)cn2C1Cc2ccccc2C1 [Compound No. 63, 3-[4-amino-7-(2,3-dihydro-1H-inden-2-yl)-7H-pyrrolo[2,3-d]pyrimidin-5-yl]-5-fluorophenol] | 7.98 | 50.79 | 33.44 | 94.69 | 81.43 |  |  |  | 92.56 | 

Next, values leading:

Row | pIC50 (PI3Kδ) | PI3Kβ @ 0.3 μM (% Inh) (PI3Kβ) | PI3Kγ @ 0.3 μM (% Inh) (PI3Kγ) | BMX/ETK @ 0.3 μM (% Inh) (BMX/ETK) | PI3Kδ @ 0.1 μM (% Inh) (PI3Kδ) | pIC50 (PI3Kβ) | pIC50 (PI3Kγ) | pIC50 (BMX/ETK) | PI3Kδ @ 1 μM (% Inh) (PI3Kδ) | PI3Kδ @ 0.01 μM (% Inh) (PI3Kδ) | SMILES
7 | 7.18 | 37.87 | 38.75 | 92.36 |  |  |  |  |  |  | Nc1ncnc2c1c(-c1ccc(F)c(O)c1)nn2C1CCc2ccccc2C1 (racemic) [Compound No. 26, 5-(4-amino-1-(1,2,3,4-tetrahydronaphthalen-2-yl)-1H-pyrazolo[3,4-d]pyrimidin-3-yl)-2-fluorophenol]
8 | 7.26 |  |  |  | 47.94 | 6.10 | 6.34 | 8.21 |  |  | Nc1ncnc2c1c(-c1ccc(F)c(O)c1)nn2C1CCc2ccccc2C1 (single isomer, unassigned) [Compound No. 26b, 5-(4-amino-1-(1,2,3,4-tetrahydronaphthalen-2-yl)-1H-pyrazolo[3,4-d]pyrimidin-3-yl)-2-fluorophenol]
9 | 7.21 |  |  |  | 61.73 | 6.38 | 6.71 | 9.10 |  |  | Nc1ncnc2c1c(-c1ccc(F)c(O)c1)nn2C1Cc2ccccc2C1 [Compound No. 29, 5-(4-amino-1-indan-2-yl-pyrazolo[3,4-d]pyrimidin-3-yl)-2-fluoro-phenol]
10 | 8.07 |  |  |  |  | 6.98 | 6.91 | 6.74 |  |  | Nc1ncnc2c1c(-c1cc(O)cc(F)c1)nn2C1CCc2ccccc2C1 (stereo not shown) [compound 6, 3-(4-amino-1-(1,2,3,4-tetrahydronaphthalen-2-yl)-1H-pyrazolo[3,4-d]pyrimidin-3-yl)-5-fluorophenol]
11 | 7.48 | 27.87 | 62.17 | 86.63 | 69.44 |  |  |  | 99.12 |  | Nc1ncnc2c1c(-c1ccc(Cl)c(O)c1)nn2C1Cc2ccccc2C1 [Compound No. 56, 5-[4-amino-1-(2,3-dihydro-1H-inden-2-yl)-1H-pyrazolo[3,4-d]pyrimidin-3-yl]-2-chlorophenol]
12 | 6.94 |  |  |  | 39.35 | 5.95 | 6.39 | 8.51 |  |  | Nc1ncnc2c1c(-c1ccc(F)c(O)c1)nn2C1CCc2ccccc2C1 (single isomer, unassigned) [Compound No. 26a, 5-(4-amino-1-(1,2,3,4-tetrahydronaphthalen-2-yl)-1H-pyrazolo[3,4-d]pyrimidin-3-yl)-2-fluorophenol]
